Test results reported in US11510887B2, “Sobetirome in the treatment of myelination diseases” (Oregon Health & Science University, priority 2013, dated 2022).

Key:
[1] = test system: corpus callosum of mice following injection of lysolecithin; assay: Lysolecithin toxin model of focal demyelination; assay type: in vivo, C57BL/6 mice; details: 8 days after lysolecithin injection, daily i.p. from 7 days before to 8 days after, sobetirome 1.0 mg/kg/day, T3 0.4 mg/kg/day
Protocol: FIG. 1: Sobetirome reduced demyelination in the corpus callosum of mice following injection of lysolecithin. Top, BlackGold® stain is specific for myelin fibers and cresyl violet is used as a counterstain. Mice received stereotactic injections of 2 μL of PBS or 2% lysolecithin in the corpus callosum. A white arrow indicates the path of the injection needle and a black box indicates the lesion site. An enlarged image of the boxed lesion site is shown to the right. Bottom, brain sections of 30 μm were stained with FluoroMyelin™, anti-PDGFR-α and DAPI. Hypothyroidism was induced with drinking water treatment, and both hypothyroid and control mice received vehicle injections. T3 (0.4 mg/kg) and sobetirome (1 mg/kg) were administered by daily i.p. injections starting 7 days before stereotactic injection of lysolecithin. Mice were euthanized 8 days after stereotactic injection of 2% lysolecithin, and brains were harvested and processed for histological analysis.
Lysolecithin was injected into the corpus callosum using stereotactic equipment at the x, y, z coordinates of +1.000, +1.050, and +2.000 mm from the Bregma point using a beveled needle with the bevel facing caudally. To minimize trauma, 2 μL of 2% lysolecithin or 2 μL of PBS was injected over four minutes using a micropump injector and the beveled needle was held in place for five minutes before withdrawal. […]

[2] = test system: C57BL/6 mice with EAE; assay: EAE induced with MOG 35-55 peptide; assay type: in vivo, C57BL/6 female mice
Protocol: FIG. 2: Sobetirome reduces demyelination in mice with EAE. […] EAE was induced in female mice with MOG 35-55 peptide. On day 17 post immunization, mice were randomized based on their EAE scores and daily i.p. injections of sobetirome (n=8) or vehicle (n=8) were started. Mice were euthanized after 11 days of treatment and spinal cords were prepared for histological evaluation. The mean percentage of ventrolateral demyelination for vehicle treated mice was 17.25 (SD+/−7.09) and 9.11 (SD+/−4.96) for sobetirome (p<0.01).
This study was performed to assess the effects of sobetirome on EAE in C57BL/6 female mice immunized with MOG 35-55 peptide. Seventeen days after immunization, at peak of clinical disease, mice were randomized to receive daily injections of sobetirome (1 mg/kg/day) or vehicle. After 11 days of treatment, mice were euthanized and processed for histologic examination. […] This is because the degree of inflammation within the spinal cords was similar between the two groups (Table 1) and much of the short term paralysis that occurs in EAE is secondary to effects of inflammation on neural function. […] Much of the effect appears related to protection of axons and myelin from damage (FIG. 3). Thus, sobetirome has a neuroprotective effect that decreases axonal damage and demyelination.

Cc1cc(OCC(=O)O)cc(C)c1Cc1ccc(O)c(C(C)C)c1 [Sobetirome]
areas of demyelination compared with vehicle [1]: much smaller areas of demyelination
% CD4 Staining (T cell marker) ([2]; immunofluorescent staining of lumbosacral spinal cord sections, vehicle 1.01): 1.24%
% CD11b Staining (macrophage marker) ([2]; immunofluorescent staining of lumbosacral spinal cord sections, vehicle 3.89): 5.76%
EAE clinical scores versus vehicle ([2]; sobetirome 1 mg/kg/day, 11 days of treatment from day 17 after immunization): did not differ significantly
demyelination in lateral columns of the lumbosacral cord versus vehicle ([2]; sobetirome 1 mg/kg/day, 11 days of treatment, p<0.01): significantly less demyelination
mean percentage of ventrolateral demyelination (area of damage in ventrolateral white matter) ([2]; spinal cord, after 11 days of daily i.p. treatment started day 17 post immunization, n=8, vehicle 17.25 (SD+/−7.09), p<0.01): 9.11 (SD+/−4.96) %

N[C@@H](Cc1cc(I)c(Oc2ccc(O)c(I)c2)c(I)c1)C(=O)O [T3, triiodothyronine]
areas of demyelination compared with vehicle [1]: much smaller areas of demyelination
